Laboratory results reported in paper PMC5667507, “A novel ^18F-labelled high affinity agent for PET imaging of the translocator protein” (Chemical Science, 2015).

Assay: Baseline dynamic PET scan of healthy baboon brain
Type: in vivo
Settings: whole brain, 240 min dynamic PET, i.v. bolus
Procedure: Following PET reconstruction and co-registration to an MRI (Fig. 7a), a time–activity curve for the tracer in the whole brain was established (Fig. 7b). […]
divided by the animal weight. A secondary spherical VOI was used to define the contralateral kinetics and the tumour to contralateral SUV ratio was calculated as a function of time. […]
were represented graphically using the GraphPad Prism 6 software (GraphPad Softare Inc).
14. Primate PET Methodology
A baboon (Papio anubis, 21.3 kg) was fasted for up to 12 h prior to imaging. […] Body temperature was maintained using a heated water blanket and monitored by rectal thermometer. Vital signs, including end tidal CO2, SpO2, heart rate, respiration rate and blood pressure, were monitored continuously and recorded at least every 15 min during the study. […]
generated and SUV determined as the concentration in the VOI divided by the injected dose divided […]
exception of the samples collected for metabolite analysis (3.5 mL each), all blood samples were 1 mL each. […] After blood collection, all samples were kept on ice until analysed.
Radioactivity in whole blood and plasma was assessed with a well-type γ-counter using a 400–1400 keV window (Perkin Elmer Wallac 2480, USA). […]

CCN(CC)C(=O)c1nc2ccccc2c(-c2ccccc2)c1C[18F] [[^18F]-AB5186 6]
peak standardised uptake value (SUV) in brain: 1.67
